Where a chain is given by its changes, count along the chain named. Where no end group is shown, it is not given here.

What all share (assay): Homologous whole cell competition binding
What all share (settings): homologous competition of 125I-sCT(8-32), whole cells, mean ± S.E.M., SEM

One experiment addresses T1, hCTR Y372A (Homo sapiens, UniProt P30988, Y372A).
T1 construct: c-Myc (N); expressed in transfected cells
T1 sequence (P30988 25-474 Y372A): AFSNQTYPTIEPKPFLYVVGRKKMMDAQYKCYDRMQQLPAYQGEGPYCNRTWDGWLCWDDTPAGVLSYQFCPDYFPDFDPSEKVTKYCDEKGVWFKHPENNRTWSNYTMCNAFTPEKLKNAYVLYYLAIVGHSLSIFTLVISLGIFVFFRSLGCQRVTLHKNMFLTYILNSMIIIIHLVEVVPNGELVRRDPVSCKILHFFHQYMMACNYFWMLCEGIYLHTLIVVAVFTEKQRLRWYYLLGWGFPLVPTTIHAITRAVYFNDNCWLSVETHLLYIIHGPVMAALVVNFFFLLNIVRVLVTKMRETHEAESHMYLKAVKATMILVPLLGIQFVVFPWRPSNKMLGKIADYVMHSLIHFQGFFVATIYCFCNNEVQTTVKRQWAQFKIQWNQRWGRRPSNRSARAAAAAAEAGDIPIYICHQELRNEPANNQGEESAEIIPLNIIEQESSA
How it is done:
(§1) Homologous radioligand competition was performed on 2.5 × 10^4 cells/well seeded into 96-well trays and cultured overnight. Cells were incubated overnight at 4 °C with two concentrations of ^125I-sCT(8-32) (between 25 and 100 pM; specific activity, 2000 Ci/mmol^9) and serial dilutions of non-iodinated sCT(8-32). Non-bound ligand was removed and bound ligand activity was measured using a γ counter (Wallac Wizard 1470 Gamma Counter, Perkin Elmer, 80% counter efficiency). Values were normalized against non-specific binding (0%) defined by the presence of 1 μM of unlabelled sCT(8-32), and total ligand bound in absence of competing sCT(8-32) (100%).
(§2) IC50 and Bmax values were estimated from competitive inhibition of ^125I-sCT(8-32) binding using a 3-parameter logistic equation (log(inhibitor versus response)) in Prism (v7; Graphpad). Data were corrected for radioligand occupancy using the Cheng-Prusoff equation in Prism; as such data are reported as pKi. Emax and EC50 were estimated from concentration-response curves using with a 3-parameter logistic equation in Prism (v7). These values are a composite of functional affinity, efficacy and stimulus response coupling. The Black and Leff operational model of agonism was applied to separate effects on pathway-specific efficacy (τ) from those that modify ligand functional affinity (pKA). Derived τ values were normalized to experimentally determined levels of cell surface expression to provide a measure of efficacy (τc) that is independent of affinity and altered cell surface receptor expression. pKi, pKA and log τc values for mutant receptors were statistically compared to those of the WT receptor using a one-way analysis of variance (ANOVA) and Dunnett’s post-test. Significance was accepted at P < 0.05.

Another experiment addresses T2, hCTR T280A (Homo sapiens, UniProt P30988, T280A).
T2 construct: expressed in transfected cells
T2 sequence (P30988 25-474 T280A): T1 sequence (P30988 25-474 Y372A) with T256A, A348Y
The protocol:
as §1, §2

In the next experiment the target is T3, hCTR L297A (Homo sapiens, UniProt P30988, L297A).
T3 construct: c-Myc (N); expressed in transfected cells
T3 sequence (P30988 25-474 L297A): T1 sequence (P30988 25-474 Y372A) with L273A, A348Y
The protocol: as §1, §2

The target of another experiment is T4, hCTR V357A (Homo sapiens, UniProt P30988, V357A).
T4 construct: c-Myc (N); expressed in transfected cells
T4 sequence (P30988 25-474 V357A): T1 sequence (P30988 25-474 Y372A) with V333A, A348Y
How it is done: as §1, §2

Broadly, the Ki is the equilibrium dissociation constant of an inhibitor or competing ligand from its target. Read a low Ki as tighter binding. “VLGKLSQELHKLQTYPRTNTGSGTP-NH2 [sCT(8-32)]”: the Ki on hCTR Y372A was 0.141 nM; on hCTR T280A it was 0.245 nM; at hCTR L297A, 0.0631 nM; at hCTR V357A, 0.209 nM.

(Values after publication PMC5908784, “Extracellular loops 2 and 3 of the calcitonin receptor selectively modify agonist binding and efficacy” (Biochemical Pharmacology, 2018).)
